{"source": "paper PMC12316308", "about": "“Interactions of substrates and phosphinyl containing inhibitors with bacterial and human zinc proteases” (PLOS One, 2025)", "key": {"[1]": {"target": "MMP-14", "conditions": "cited from earlier work"}, "[2]": {"target": "T1, APMA activated MMP-9 (MMP-9(A)) (Homo sapiens, UniProt P14780)", "T1 construct": "made in house; host or cells: Sf9 and High Five insect cells", "T1 sequence (P14780 107-707 limits assumed)": "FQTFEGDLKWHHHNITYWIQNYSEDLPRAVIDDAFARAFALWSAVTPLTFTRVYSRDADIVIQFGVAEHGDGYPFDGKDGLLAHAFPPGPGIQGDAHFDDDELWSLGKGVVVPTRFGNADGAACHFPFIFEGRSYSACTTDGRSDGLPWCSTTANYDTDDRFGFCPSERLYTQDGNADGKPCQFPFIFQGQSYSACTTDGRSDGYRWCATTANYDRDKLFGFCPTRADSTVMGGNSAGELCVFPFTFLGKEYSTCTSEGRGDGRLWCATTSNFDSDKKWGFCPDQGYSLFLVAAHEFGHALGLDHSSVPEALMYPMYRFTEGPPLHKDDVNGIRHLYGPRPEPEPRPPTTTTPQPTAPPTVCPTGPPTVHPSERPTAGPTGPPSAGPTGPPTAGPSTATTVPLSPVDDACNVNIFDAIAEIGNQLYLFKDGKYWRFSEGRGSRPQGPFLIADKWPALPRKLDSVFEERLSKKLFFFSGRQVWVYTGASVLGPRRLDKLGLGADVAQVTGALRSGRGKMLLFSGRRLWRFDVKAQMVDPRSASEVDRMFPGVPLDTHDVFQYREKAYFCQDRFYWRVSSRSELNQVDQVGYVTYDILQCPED", "assay": "Enzyme inhibition kinetics, fluorogenic substrate ES001", "assay_type": "biochemical", "conditions": "for remaining activity at 10 µM: 10 µM inhibitor", "how_it_was_run": "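Recombinant full-length proMMP-9 expressed in insect cells was auto-activated with APMA and titrated with galardin. Activity at 0.05 nM enzyme was measured using 4.0 µM fluorogenic substrate ES001 in 100 µL 0.1 M Hepes pH 7.5 containing 10 mM CaCl2, 0.005% Brij-35 and 1.0% DMSO. Initial rates were followed at 37°C (excitation 320 nm, emission 405 nm) relative to inhibitor-free controls.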"}, "[3]": {"target": "T2, Mag-Trypsin activated MMP-9 (MMP-9(MT)) (Homo sapiens, UniProt P14780)", "T2 construct": "made in house; host or cells: Sf9 and High Five insect cells", "T2 sequence (P14780 107-707 limits assumed)": "as above", "assay": "Enzyme inhibition kinetics, fluorogenic substrate ES001", "assay_type": "biochemical", "conditions": "for remaining activity at 100 µM: 100 µM inhibitor; for vi/v0: Mag-Trypsin activated recombinant human MMP-9, v0 = average of vi at 10-10 to 10-8 M H2"}, "[4]": {"target": "MMP-9", "conditions": "previously reported; cited from earlier work"}, "[5]": {"target": "T3, aureolysin (ALN) (Staphylococcus aureus, UniProt P81177)", "T3 construct": "purchased BioCentrum Ltd (Kraków, Poland)", "T3 sequence (P81177 209-509)": "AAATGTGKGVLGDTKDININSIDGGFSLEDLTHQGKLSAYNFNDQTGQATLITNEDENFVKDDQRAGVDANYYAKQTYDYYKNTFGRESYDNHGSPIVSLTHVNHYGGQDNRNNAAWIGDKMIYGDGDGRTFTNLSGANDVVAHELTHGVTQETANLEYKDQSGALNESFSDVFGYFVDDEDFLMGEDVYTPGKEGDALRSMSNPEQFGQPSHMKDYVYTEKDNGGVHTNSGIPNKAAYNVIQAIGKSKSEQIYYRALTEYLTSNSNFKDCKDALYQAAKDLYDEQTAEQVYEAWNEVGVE", "assay": "Enzyme inhibition kinetics, fluorogenic substrate ES005", "assay_type": "biochemical", "conditions": "for remaining activity at 100 µM: 100 µM inhibitor"}}, "note": "Where “and” joins values, the source holds several entries; their conditions need not be identical. Equal entries are not always repeated. Where two headings read alike, the source gives them in different places."}
{"compound": "NC(=O)C(Cc1c[nH]c2ccccc12)NC(=O)C(CCCc1ccccc1)CP(=O)(O)C(Cc1ccccc1)NC(=O)OCc1ccccc1", "note": "(centres unmarked) [H-2]", "values": [{"measurement": "Ki", "setting": "[1]; RRS enantiomer", "result": 386, "unit": "nM"}, {"measurement": "Ki", "setting": "[1]; RSS enantiomer", "result": 90, "unit": "nM"}, {"measurement": "Ki", "setting": "[1]; previously reported", "result": 40, "unit": "nM"}, {"measurement": "remaining activity at 10 µM", "setting": "[2]; 0.25 h, read-out: vi/v0 (single replicate), rMMP-9 (APMA activated), 15 min pre incubation", "result": 2.55, "unit": "%"}, {"measurement": "remaining activity at 10 µM", "setting": "[2]; 0.25 h, read-out: vi/v0 avg, rMMP-9 (APMA activated), 15 min pre incubation", "result": 2.28, "unit": "%"}, {"measurement": "remaining activity at 10 µM", "setting": "[2]; 0.5 h, read-out: vi/v0 (single replicate), rMMP-9 (APMA activated), 30 min pre incubation", "result": 1.79, "unit": "%"}, {"measurement": "remaining activity at 10 µM", "setting": "[2]; 0.5 h, read-out: vi/v0 avg, rMMP-9 (APMA activated), 30 min pre incubation", "result": 1.99, "unit": "%"}, {"measurement": "inhibitory effect on enzymatic activity", "setting": "[2]; MMP-9(A), 100 μM compound, in words", "result": "strong inhibition"}, {"measurement": "Ki", "setting": "[2]; MMP-9(A), substrate ES001 4.0 µM, 0.1 M Hepes pH 7.5, 37°C, 1.0% DMSO, Ki from IC50 (Eqn. 3), read-out: Ki ± s.d. (converted)", "result": 560, "unit": "nM"}, {"measurement": "vi/v0 Av (bar diagram figure 7)", "setting": "[2]; rMMP-9 (APMA activated), inhibitor 10 μM, average over 0, 15, 30 min preincubation", "result": 0.02111}, {"measurement": "vi/v0 (relative enzyme activity with inhibitor), single determinations", "setting": "[2]; rMMP-9 (APMA activated), inhibitor 10 μM, preincubation 0 min", "result": "0.0222 and 0.02292 and 0.01955 and 0.01797"}, {"measurement": "vi/v0 (relative enzyme activity with inhibitor), single determinations", "setting": "[2]; rMMP-9 (APMA activated), inhibitor 10 μM, preincubation 15 min", "result": "0.02548 and 0.02093 and 0.0213 and 0.0234"}, {"measurement": "vi/v0 (relative enzyme activity with inhibitor), single determinations", "setting": "[2]; rMMP-9 (APMA activated), inhibitor 10 μM, preincubation 30 min", "result": "0.01792 and 0.01966 and 0.0206 and 0.02139"}, {"measurement": "remaining activity at 10 µM", "setting": "[2]; read-out: vi/v0 (single replicate), rMMP-9 (APMA activated), no preincubation", "result": 2.22, "unit": "%"}, {"measurement": "remaining activity at 10 µM", "setting": "[2]; read-out: vi/v0 avg, rMMP-9 (APMA activated), no preincubation", "result": 2.07, "unit": "%"}, {"measurement": "remaining activity at 100 µM", "setting": "[3]; 0.25 h, read-out: vi/v0 avg, rMMP-9 (Mag-trypsin activated), 15 min pre incubation", "result": 1.53, "unit": "%"}, {"measurement": "remaining activity at 100 µM", "setting": "[3]; 0.5 h, read-out: vi/v0 (single replicate), rMMP-9 (Mag-trypsin activated), 30 min pre incubation", "result": 1.66, "unit": "%"}, {"measurement": "remaining activity at 100 µM", "setting": "[3]; 0.5 h, read-out: vi/v0 avg, rMMP-9 (Mag-trypsin activated), 30 min pre incubation", "result": 1.41, "unit": "%"}, {"measurement": "inhibitory effect on enzymatic activity", "setting": "[3]; MMP-9(MT), 100 μM compound, in words", "result": "strong inhibition"}, {"measurement": "Ki", "setting": "[3]; MMP-9(MT), substrate ES001 4.0 µM, 0.1 M Hepes pH 7.5, 37°C, 1.0% DMSO, Ki from IC50 (Eqn. 3), read-out: Ki ± s.d. (converted)", "result": 530, "unit": "nM"}, {"measurement": "vi/v0", "setting": "[3]; Log [H2] (M) -4", "result": "0.01838 and 0.0265 and 0.01864 and 0.01609"}, {"measurement": "vi/v0", "setting": "[3]; Log [H2] (M) -5", "result": "0.1569 and 0.1424 and 0.1393 and 0.1595"}, {"measurement": "vi/v0", "setting": "[3]; Log [H2] (M) -6", "result": "0.5598 and 0.5376 and 0.5583 and 0.5906"}, {"measurement": "vi/v0", "setting": "[3]; Log [H2] (M) -7", "result": "0.8621 and 0.7854 and 0.9893"}, {"measurement": "vi/v0", "setting": "[3]; Log [H2] (M) -8", "result": "0.9994 and 0.9899 and 0.9629"}, {"measurement": "vi/v0", "setting": "[3]; Log [H2] (M) -9", "result": "0.9775 and 0.9856 and 0.9448"}, {"measurement": "vi/v0", "setting": "[3]; Log [H2] (M) -10", "result": "1.053 and 1.045 and 1.043"}, {"measurement": "vi/v0 Av (bar diagram figure 7)", "setting": "[3]; rMMP-9 (Mag-trypsin activated), inhibitor 100 μM, average over 0, 15, 30 min preincubation", "result": 0.01565}, {"measurement": "vi/v0 (relative enzyme activity with inhibitor), single determinations", "setting": "[3]; rMMP-9 (Mag-trypsin activated), inhibitor 100 μM, preincubation 0 min", "result": "0.01777 and 0.01586 and 0.01778 and 0.01563"}, {"measurement": "vi/v0 (relative enzyme activity with inhibitor), single determinations", "setting": "[3]; rMMP-9 (Mag-trypsin activated), inhibitor 100 μM, preincubation 30 min", "result": "0.01655 and 0.01171"}, {"measurement": "remaining activity at 100 µM", "setting": "[3]; read-out: vi/v0 (single replicate), rMMP-9 (Mag-trypsin activated), no preincubation", "result": 1.78, "unit": "%"}, {"measurement": "remaining activity at 100 µM", "setting": "[3]; read-out: vi/v0 avg, rMMP-9 (Mag-trypsin activated), no preincubation", "result": 1.68, "unit": "%"}, {"measurement": "Ki", "setting": "[4]", "result": 10, "unit": "nM"}, {"measurement": "Ki", "setting": "[5]", "result": 80000, "unit": "nM"}, {"measurement": "remaining activity at 100 µM", "setting": "[5]; 0.25 h, read-out: vi/v0 (single replicate), Aureolysin, 15 min pre incubation", "result": 45.5, "unit": "%"}, {"measurement": "remaining activity at 100 µM", "setting": "[5]; 0.25 h, read-out: vi/v0 avg, Aureolysin, 15 min pre incubation", "result": 41.5, "unit": "%"}, {"measurement": "remaining activity at 100 µM", "setting": "[5]; 0.5 h, read-out: vi/v0 (single replicate), Aureolysin, 30 min pre incubation", "result": 39.1, "unit": "%"}, {"measurement": "remaining activity at 100 µM", "setting": "[5]; 0.5 h, read-out: vi/v0 avg, Aureolysin, 30 min pre incubation", "result": 39.4, "unit": "%"}, {"measurement": "inhibitory effect on enzymatic activity", "setting": "[5]; ALN, 100 μM compound, in words", "result": "strong inhibition"}, {"measurement": "vi/v0 Av (bar diagram figure 7)", "setting": "[5]; Aureolysin (ALN), inhibitor 100 μM, average over 0, 15, 30 min preincubation", "result": 0.4117}, {"measurement": "vi/v0 (relative enzyme activity with inhibitor), single determinations", "setting": "[5]; Aureolysin (ALN), inhibitor 100 μM, preincubation 0 min", "result": "0.4244 and 0.4426 and 0.4113 and 0.3677"}]}
